This is an account of results in patent US7598400B2, “AMPO spin traps” (The Ohio State University Research Foundation, priority 2004, dated 2009).

The conditions of data set [1]: pH 7.2 and 23° C.; literature reference; cited from earlier work.
Data set [2] is described as follows: Partition coefficient n-octanol/water (buffer). It counts as physicochemical. The note with it: for Kp (n-octanol/water): pH 7.2, shaken for 2 hrs at 37° C.
A short description of data set [3]: Decay kinetics of nitrone-superoxide adducts (EPR, riboflavin-light system). To be noted: pH 7.2 and 23° C.; this work. The format is physicochemical. The protocol: Decay Kinetics In a typical decay kinetic study, 50 μL solution containing 25 mM of the nitrone and 100 μM riboflavin was irradiated for 3 min in the cavity. […] All data were the average of 3 or more measurements.

A short description of data set [4]: Rate of superoxide radical trapping by competitive trapping versus DEPMPO (EPR). To be noted: based on kDEPMPO=58 M^−1 s^−1. The protocol: The nitrone 5-carbamoyl-5-methyl-1-pyrroline N-oxide (AMPO) was successfully synthesized and characterized. […] Resulting spin adducts for each of these radicals gave unique spectral profiles. […] Theoretical analyses using density functional theory calculations at the B3LYP/6-31=G**/B3LYP6-31G* level were performed on AMPO and its corresponding suproxide product. Calculations predicted the presence of intramolecular H-bonding in both AMPO and its superoxide adduct, and these interactions were further confirmed by an X-ray structure (in the case of AMPO) of a novel and the amido nitrone compound 2-amino-5-carbamoyl-5-methyl-1-pyrroline N-oxide (NH2-AMPO).
(§1) Trapping of O2^•−. Typical O2^•− trapping experiments utilized the riboflavin-light system as described in the Kinetics section. An alternative O2^•− generating system used a solution of 0.4 mM xanthine and 0.5 unit/mL xanthine oxidase, or 10 nM PMA and 8×10^5 neutrophil cells in 25 mM AMPO. Spectra were acquired over a period of 15 min.

The nature of data set [5]: Spin trapping of radicals detected by EPR spectroscopy. The note with it: hydroxyl, superoxide, C-centered, sulfite, and tert-butoxyl radicals. The protocol:
Miscellaneous Spin Trapping Studies Fenton reaction system. A 50 μL 0.1 M phosphate buffer solution containing 30 mM AMPO, 1% H2O2 and 65 mM FeSO4 was transferred to a 50 μL capillary tube and EPR spectrum of the hydroxyl adduct was recorded over 5 min time period.
Trapping of SO3^•−, CO2^•− and CH3.CHOH radicals. 50 μL 0.1 M phosphate buffer solution containing 30 mM AMPO, 1% H2O2 and 100 mM of the respective radical source NaHCO2, Na2SO3, or ethanol with 65 mM freshly prepared FeSO4. The mixture was then transferred to 50 μL capillary tube and EPR spectrum of the adduct was recorded over a 5 min time period.
Trapping of GS. and t-BuO. radicals. 50 μL 0.1 M phosphate buffer solution containing 30 mM AMPO and 100 mM GSSG or (CH3)3CO—OC(CH3)3. The mixture was then transferred to 50 μL capillary tube and the radicals were generated by UV photolysis. EPR spectrum of the adduct was recorded over a 5 min time period.
as §1

For data set [6] the following is noted: value of the competitor DEPMPO used as basis of the calculation; cited from earlier work.

Molecules are shown by their SMILES. Read-outs that look alike come from different tables or passages of the source.

`CC1(C)CCC=[N+]1[O-]` [DMPO]: in data set [1], the “kl /10^−4s^−1 (first order decay of nitrone-superoxide adduct)” value is 129.0 10^−4s^−1 and the “t1/2/min, first order approximation half-life of nitrone-superoxide adduct” value is 0.9 min. Also, the “Kp (n-octanol/water)” value in data set [2] turned out to be 0.06.

With `CCOC(=O)C1(C)CCC=[N+]1[O-]` (stereo not shown) [EMPO, 5-ethoxycarbonyl-5-methyl-1-pyrroline N-oxide], the “kl /10^−4s^−1 (first order decay of nitrone-superoxide adduct)” value in data set [3] was 11.6 ± 0.5 10^−4s^−1. Moreover, the “Rate of superoxide radical trapping (k)” value in data set [4] turned out to be 44 M⁻¹ s⁻¹. In data set [2], the “Kp (n-octanol/water)” value is 0.33.

As to `CC1(C(N)=O)CCC=[N+]1[O-]` (stereo not shown) [AMPO, 5-carbamoyl-5-methyl-1-pyrroline N-oxide], the “kl /10^−4s^−1 (first order decay of nitrone-superoxide adduct)” value in data set [3] is on record as 14.0 ± 1.2 10^−4s^−1. For the same molecule, in data set [5], the “Spin trapping of radicals by EPR” value is “has been demonstrated”. The “Rate of superoxide radical trapping (k)” value in data set [4] came to 38 M⁻¹ s⁻¹. Moreover, the “partition coefficient in an n-octanol/buffer system (comparison in words)” value in data set [2] (n-octanol/buffer system) was “comparable value to those of DMPO and DEPMPO”. Also, the “Kp (n-octanol/water)” value in data set [2] was 0.03.

For the molecule `CCOP(=O)(OCC)C1(C)CCC=[N+]1[O-]` (stereo not shown) [DEPMPO, 5-diethoxyphosphoryl-5-methyl-1-pyrroline N-oxide], the “Rate of superoxide radical trapping (k), reference value” in data set [6] was 58 M⁻¹ s⁻¹. In data set [1], the “kl /10^−4s^−1 (first order decay of nitrone-superoxide adduct)” value is reported as 8.13 10^−4s^−1 and the “t1/2/min, first order approximation half-life of nitrone-superoxide adduct” value was 14.2 min. Besides, in data set [3], the “kl /10^−4s^−1 (first order decay of nitrone-superoxide adduct)” value is given as 7.5 ± 0.7 10^−4s^−1. In addition, the “Kp (n-octanol/water)” value in data set [2] amounted to 0.16.
